How the values were obtained:
E. coli MC4100(DE3) = experiment: Cell growth (optical density A500) under Tat++ conditions; assay type: cell-based, Escherichia coli; conditions: Tat++ conditions, concentration-dependent, 8 h 25°C
Experimental: Fig 4 Effect of Oxidative Phosphorylation Inhibitors on In Vivo Tat Transport and Sensitivity of Fluorescence Detection on Plates. (A) Effect of oxidative phosphorylation inhibitors on cell growth and mCherry fluorescence under Tat^++ conditions. Cells producing spTorA-mCherry-SsrA under Tat^++ conditions were grown at 25°C for 8 h in the presence of the indicated respiratory inhibitors. After overnight incubation at 4°C, optical densities (upper panel; A500) and total mCherry cellular fluorescence intensities (lower panel; EX = 587 nm, EM = 610 nm) were measured (n = 3). Nigericin (N; 50 μM) is a H^+/K^+ exchanger, which collapses the ΔpH gradient. Valinomycin (V; 50 μM) is a K^+ ionophore, which collapses the Δψ. NaSCN (SCN; 50 mM) collapses the Δψ. NaN3 (N3; 0.1%) inhibits the cytochrome bo3 terminal oxidase. (B) Effect of NaSCN concentration on cell density and total mCherry cellular fluorescence. Measurements were made after incubating cells overnight at 4°C (n = 3). (C) Calibration and sensitivity of mCherry fluorescence detection in 384-well plates. Overnight cultures of E. coli MC4100(DE3) cells were diluted to A500 = 0.25, 0.2, 0.15, 0.10 and 0.05, and aliquoted into 384-well plates. The spTorA-mCherry-SsrA and TatABC proteins were induced together or neither were induced, as indicated. The cells were incubated at 25°C for 8 hours, and stored overnight at 4°C. Optical densities (upper panel) and mCherry fluorescence intensities (lower panel) were determined with a BMG Polarstar Omega plate reader (at 500 nm for absorbance; EX = 584 nm, EM = 620 nm for fluorescence). For comparison, the absorbance and fluorescence intensities from purified spTorA-mCherry-H6 (30, 25, 20, 15, 10 and 5 nM) are also shown (n = 3 plates, 16 wells/plate). (D) Simulated hits on 384-well plates. Using the approach described in (C), cells (A500 = 0.15) were grown on plates under the indicated conditions, and then fluorescence intensities were measured. spTorA-mCherry-SsrA was used for conditions II-IV. spTorA-mCherry-H6 was used for a minus SsrA control (I; 100%). The SsrA tag decreased the mCherry fluorescence intensity (II; 63±14%), consistent with a decrease in cytoplasmic mCherry concentration due to SsrA-dependent degradation.
The plates containing cells and dispersed test compounds were grown with shaking (200 rpm) at 25°C for 8 h. Plates were individually mounted, not stacked, on a hollow plastic platform, allowing adequate air circulation. Following the 8 h incubation, plates were transferred to 4°C for 16 h. Each plate was covered with an empty plate to prevent condensation on the lid. […] Following the incubation, plates were read using a BMG Polarstar Omega plate reader (BMG Labtech, Ortenberg, Germany) to determine optical densities (A500) and mCherry fluorescence intensities (EX = 584 nm, EM = 620 nm).
Supplementary file pone.0149659.s005.tiff: S5 Fig Effect of P. aeruginosa Tat Inhibitors on E. coli Cell Growth and Tat Transport. The concentration-dependent effects of Bay 11–7082 (A) and N-phenylmaleimide (B) on bacterial growth (black) and in vivo Tat transport of spTorA-mCherry-SsrA (red) was determined under Tat^++ conditions (top). An overnight culture of MC4100(DE3) (pTorA-mCherry-SsrA, pTatABC-Duet1) was diluted 1:50 in 10 mL fresh LB broth with appropriate antibiotics and dispensed (2 mL) into 5 tubes, and growth was continued at 37°C with shaking at 200 rpm until A500 ≈ 0.5. The indicated concentrations of the two compounds were added, and the expression of spTorA-mCherry-SsrA and TatABC were induced. Cultures were grown for another 8 h at 25°C. Cell growth was assayed by A500, and cells (1 mL, A500 = 1.0) were fractionated into cytoplasmic (C) and periplasmic (P) fractions as described. Transport of spTorA-mCherry-SsrA was assayed by in-gel fluorescence of mCherry (upper gels) and Western blot analyses (middle gels). […]

[1] = test system: Pseudomonas aeruginosa Tat machinery; parameters: method as in PMID 23006747; conditions: cited from earlier work

SMILES | effect on E. coli growth (E. coli MC4100(DE3)) | activity on the Pseudomonas aeruginosa Tat machinery [1]
Cc1ccc(S(=O)(=O)/C=C/C#N)cc1 [Bay 11–7082] | inhibited E. coli growth | identified as inhibitors
O=C1C=CC(=O)N1c1ccccc1 [N-phenylmaleimide] | inhibited E. coli growth | identified as inhibitors

Source: paper PMC4764201, “High Throughput Screen for Escherichia coli Twin Arginine Translocation (Tat) Inhibitors” (PLoS ONE, 2016)
